In patent US9232789B2, “Biostatic neutralizing composition for aqueous fluids” (ARKEMA FRANCE, priority 2010, dated 2016):

Key:
[1] = test system: Pseudomonas aeruginosa and Staphylococcus aureus; experiment: Test of bacterial proliferation, bactericidal and/or bacteriostatic activity according to standard NF EN 1040; assay type: cell-based; set-up: key: +: low degree of reduction; ++++: high degree of reduction; conditions: surviving bacteria counted after 5 minutes contact at 20° C.
Protocol: A test is carried out in order to evaluate the bactericidal and/or bacteriostatic activity of a sample of the composition of the invention, according to the standard NF EN 1040 (April 2006). A sample of a composition as it is (maximum concentration of the test: 80%) and/or diluted with water is added to a test suspension of bacteria (Pseudomonas aeruginosa and Staphylococcus aureus). The mixture is maintained at 20° C. for 5 minutes. An aliquote portion is removed at the end of this contact time; the bactericidal and/or bacteriostatic activity in this withdrawal is immediately neutralized or suppressed according to a validated method. The method used preferably is the dilution-neutralization method. Filtration over a membrane is used when it is not possible to find a suitable neutralizer. The surviving bacteria in each sample are counted, which makes it possible to calculate the degree of reduction, denoted by “+” (low degree of reduction) to “++++” (high degree of reduction) in table 2 below: […]

[2] = Test of neutralization (weight of amine necessary for neutralizing 100 g of oleic acid); assay type: physicochemical; conditions: for Amount necessary for neutralizing 100 g of oleic acid: weight of amine per 100 g of oleic acid
Protocol: The neutralizing capacity is evaluated by determining the weight of amine (in grams) necessary for neutralizing 100 g of oleic acid. In this example, the neutralizing capacities of the following products are compared: • Amine (1) alone: monoethanolamine (MEoA); • Amine (2) alone: n-heptyldiethanolamine ([…]); • Mixture of amine (1)+amine (2): 70% by weight of MEoA+30% by weight of […].

[3] = assay type: physicochemical
Source text: In this example, the following two amines are considered: • Amine (1) alone: methyldiethanolamine (MDEoA); • Amine (2) alone: n-heptyldiethanolamine (C7DEoA).
The appended FIG. 1 represents a ternary phase diagram between these 2 amines and water. The percentages are expressed by weight. The miscible mixtures are denoted by points (●), the immiscible mixtures are denoted by crosses (X).
The C7DEoA/water binary mixture is not miscible in all proportions. There is immiscibility when the C7DEoA is found in an amount of greater than 50%. In the area of immiscibility (amount of C7DEoA greater than 50%), the MDEoA acts as a coupling agent (co-solvent) when it is present in a content of greater than 15%.

Molecule | Degree of reduction [1] | Amount necessary for neutralizing 100 g of oleic acid [2] [g] | amount of C7DEoA in C7DEoA/water binary mixture at which there is immiscibility [3] | neutralizing capacity (in words) ([2]; oleic acid neutralization)
NCCO [MEoA, monoethanolamine, reference compound] | + | 6.8 | – | –
n-heptyldiethanolamine [Composition C7DEoA] | ++++ | 36 | greater than 50% | much lower
